Tested on: Plasmodium falciparum
Assay: GSK_TCMDC: Inhibition of Plasmodium falciparum 3D7 in whole erythrocytes, using parasite LDH activity as an index of growth.
Assay type: functional, organism-based
Conditions: Plasmodium falciparum, 3D7

| Structure (SMILES) | XC50 [nM] |
| --- | --- |
| COc1ccc(Nc2nc(N/N=C/c3cc(Br)ccc3O)nc(Nc3ccc([N+](=O)[O-])cc3)n2)cc1 | 222 |
| CCNc1cc(C(=O)N[C@@H](Cc2ccccc2)[C@H](O)CN[C@H]2CCc3ccccc32)cc(N2CCCC2=O)c1 | 295 |
| Cc1[nH]c(C)c(-c2ccc(Oc3ccc(F)cc3)cc2)c(=O)c1Br | 54.9 |
| COc1nc2c(CCN3CC[C@H](NCc4cc(C#N)c5c(c4)CCO5)[C@H](O)C3)ccnc2cc1F | 350 |
| COc1ccc(CN2CCC2=O)c(OC)c1 | 122 |
| COc1cc(Cc2cnc(N)nc2N)cc(OC)c1OCCCCC(=O)O | 1140 |
| Cc1cccc2nc(-c3ccc(-c4cccc(CN5CCC(N)C5)c4)s3)[nH]c12 (configuration not stated) | 773 |
| CC(C)(C)OC(=O)n1cc(C2CCN(CCCC34CCCc5cccc(c53)NC4=O)CC2)c2ccncc21 (configuration not stated) | 876 |
| O=C(NC1CCCCCC1)[C@@H]1CCCN1C(=O)c1ccc(O)c(-c2ccc(Cl)c(Cl)c2)c1 | 345 |
| CCOC(=O)c1ccc(NC(=O)Nc2cccc(-c3ccc(-c4nc5ccccc5[nH]4)cc3)c2)cc1 | 212 |
| COc1ccc2nccc([C@@H](O)CN3CCC(NC(=O)c4cc5c(F)cc(F)cc5[nH]4)CC3)c2n1 | 1390 |
| COc1cc(OC)c(NC(=O)Nc2ccnc3ccccc23)cc1Cl | 751 |
| N=c1ccn(CC(=NO)c2ccc(Cl)c(Cl)c2)cc1 | 943 |
| N#Cc1cccc(COC(=O)C2=C(COc3ccccc3Cl)NC(=O)NC2c2c[nH]c3cnccc23)c1 (configuration not stated) | 792 |
| COc1ccc(CNCc2ccc(F)cc2)cc1-c1ccc(S(=O)(=O)NCCN2CCCC2)c(C)c1 | 734 |
| N=C(N)NN=Cc1ccccc1OCc1ccccc1Cl | 718 |
| CCOC(=O)c1ccc(NCc2ccccn2)cc1 | 626 |
| COc1c(OC)c(OC)c2ccccc2c1CNCCCCCCNCc1c(OC)c(OC)c(OC)c2ccccc12 | 759 |
| Nc1cccc(CNCc2cccc(-c3cccc(-c4nc5cc(F)ccc5[nH]4)c3)c2)c1 | 692 |
| Cc1ccc(S(=O)(=O)N(CCCNCc2cccc(O)c2)c2ccccc2)cc1 | 767 |
| COC(=O)c1cc(OC)c(OC)cc1NC(=O)NC12CC3CC(CC(C3)C1)C2 | 879 |
| COc1ccc(CN2CCCC(C(=O)c3ccc(C(F)(F)F)cc3)C2)c(O)c1 (configuration not stated) | 849 |
| COc1ccc(CCNCCCCCNCCc2ccc(Cl)cc2)cc1OC | 741 |
| Cc1cc(-c2cnc(N)c(-c3ccc(N4CCN(C)CC4)nc3)c2)cc(C)c1O | 1400 |
| O=C(Cc1cccc(Cl)c1)Nc1cccc(-c2c[nH]c3nc(Nc4cccc(O)c4)ncc23)c1 | 731 |

| Structure (SMILES) | XC50 [nM] |
| --- | --- |
| CCN(CC)CC#Cc1ccc2[nH]c(C)c(Cl)c(=O)c2c1 | 702 |
| O=C(CC1NC(=O)c2ccccc21)Nc1ccc(-c2ccc(-c3nc4cc(C(F)(F)F)ccc4[nH]3)cc2)cc1 (configuration not stated) | 470 |
| NOCCCCOc1cc(Cl)c(Cl)cc1Cl | 175 |
| Cc1ccc(CC(C)NCC(O)c2cccc(C#N)c2)cc1 (configuration not stated) | 944 |
| CC(C)OCCCNC(=O)c1nc(-c2cccc(C(F)(F)F)c2)sc1C(C)C | 1160 |
| Cc1ccccc1Nc1nc(NCCCO)c2ccccc2n1 | 407 |
| CCOC(=O)c1c(-c2ccccc2)c(C(=O)OCC)n2ccccc12 | 614 |
| COC(=O)c1cccc(CNCc2cccc(-c3ccc(-c4nc5cccc(C)c5[nH]4)cc3)c2)c1 | 322 |
| N#Cc1ccc(N(CCOc2ccc(Cl)cc2)Cc2ccccc2C(F)(F)F)cc1C(F)(F)F | 656 |
| CCN(CC)CCCNc1c2ccccc2nc2ccccc12 | 753 |
| CCN1CCN(c2ccc(NC(=O)c3cc4c(C)nn(-c5ccccc5)c4s3)cc2C)CC1 | 757 |
| COc1ccc(-c2cccc(NC(=O)c3cccc(Cl)c3)c2)cc1CN(C)CCN(C)C | 813 |
| CC(=O)Nc1ccc(OCCN(Cc2ccccc2C(F)(F)F)c2ccc(C#N)c(C(F)(F)F)c2)cc1 | 443 |
| NC(=O)c1cc2nc(Nc3ccc(F)cc3)nc(NC3CCC3)c2[nH]1 | 195 |
| Cc1noc(C)c1-c1cccc(CNCc2cccc(-c3cccc(-c4nc5cc(F)ccc5[nH]4)c3)c2)c1 | 176 |
| Cc1cccc(CN2CCC(C(=O)Nc3ccc(-c4nc5ccccc5[nH]4)cc3)CC2)n1 | 919 |
| Cc1[nH]c2ccc(O)cc2c1C1CCN(CC2CCC(NC(=O)/C=C/c3ccc(Cl)c(Cl)c3)CC2)CC1 (configuration not stated) | 764 |
| CCCCCCC(C)(C)c1cc(O)c2c3c(c(=O)oc2c1)CCN(Cc1ccccc1)C3 | 217 |
| O=C(Nc1cccc2ccccc12)N1CCc2cc3nccc(N4CCN5CCC[C@H]5C4)c3cc21 | 889 |
| O=C(Cc1cc(F)cc(F)c1)NC1CCN(c2ccnc3cc(Cl)ccc23)C1 (configuration not stated) | 250 |
| COC(=O)c1cccc(CNCc2cccc(-c3cccc(-c4nc5cc(F)ccc5[nH]4)c3)c2)c1 | 129 |
| Cc1[nH]c2cc(Cl)ccc2c1C1=CCN(CCCCC2(C)C(=O)Nc3c(F)cccc32)CC1 (configuration not stated) | 843 |
| CCC[C@@H]([C@@H](CC1CCCCC1)C(=O)N[C@H](C(=O)Nc1nccs1)C(C)(C)SC)N(O)C=O | 152 |
| CC(C)NC(=N)NN=Cc1ccc(Cl)c(Cl)c1 | 534 |
| Cc1cnc(C[S+]([O-])c2nc3cc(C(F)(F)F)ccc3[nH]2)cc1OCc1ccccc1 (configuration not stated) | 742 |

| Structure (SMILES) | XC50 [nM] |
| --- | --- |
| CN(C)CCOc1ccc2c(c1)CN(C)CC2c1ccccc1 (configuration not stated) | 1110 |
| COC(=O)c1ccc2nc(-c3cc(OC)c(O)c(C(=O)NC4CCN(Cc5ccccc5)CC4)c3)[nH]c2c1 | 1180 |
| O=C(Nc1ccc(N2CCCN(Cc3cccc(F)c3)CC2)cc1)c1cccs1 | 546 |
| CC(C(=O)NC1CCN(c2ccnc(Nc3ccc(F)cc3)n2)C1)c1ccc(Cl)cc1 (configuration not stated) | 860 |
| COc1ccccc1N1CCN(Cc2cc(C(C)C)c(C)cc2O)CC1 | 572 |
| CCOc1ccc(C(C)NC(=O)c2cc(Cl)ccc2OC)cc1OCC (configuration not stated) | 971 |
| CCOC(=O)N1CCN(CCCNc2c3ccccc3nc3ccccc23)CC1 | 1010 |
| Cc1cccc2nc(-c3ccc(-c4ccc(CN5CCCCC5)cc4)cc3)[nH]c12 | 589 |
| COc1ccc(CNC(=O)c2cnc3c(O)cccc3c2Nc2cccc(NC(=O)c3ccc(-c4ccccc4)cc3)c2)cc1 | 941 |
| COc1ccc(CNC(=O)c2cnc3cc(-c4c(C)noc4C)ccc3c2Nc2ccccc2C(C)(C)C)cc1 | 1300 |
| O=C(c1cc(C(=O)NCc2ccc(Cl)cc2)c(=O)n(Cc2ccc(Cl)cc2)c1)c1cc(Cl)ccc1O | 1400 |
| O=C(Nc1ccc(Cl)cc1)c1ccc(CN2CCCN(Cc3ccc(F)cc3)CC2)cc1 | 966 |
| CN1CCC(NCc2cccc(-c3ccc(S(=O)(=O)NCCc4ccccn4)c(F)c3)c2)CC1 | 918 |
| CC1(C)NC(N)=NC(=N)N1OCCOc1cccc(C(F)(F)F)c1 | 3.2 |
| O=C(CCc1ccccc1)NC(c1ccc(Cl)cc1)c1ccc2cccnc2c1O (configuration not stated) | 847 |
| CCN(CC)CCCC(C)N/C(=N\c1ccccc1Br)Nc1ccc(C#N)cc1O (configuration not stated) | 1040 |
| CCOC(=O)c1c(C)n(C2CCCCCC2)c2cc(Br)c(O)cc12 | 1200 |
| CCN(CC)/C(=N/C(=N)Nc1ccc(Cl)c(Cl)c1)NCCCCCCN/C(=N\C(=N)Nc1ccc(Cl)c(Cl)c1)N(CC)CC | 761 |
| S=C(Nc1cccc(Cl)c1)NC1CCN(c2ccnc3cc(Cl)ccc23)C1 (configuration not stated) | 154 |
| CC(C)(CNC(=O)C1CCN(Cc2ccoc2)CC1)c1nc(-c2ccc(Cl)c(O)c2)c(-c2ccncc2)[nH]1 | 866 |
| COc1cccc(OCC2CCCN(CCCCNC(=O)c3ccc(NC(=O)c4ccc(Cl)cc4)cc3)C2)c1 (configuration not stated) | 748 |
| O=C(c1ccccc1F)N(Cc1ccc(Cl)cc1)c1ccccn1 | 1020 |
| CCCCCCCN(Cc1ccc(OC(C)(C)C(=O)OCC)cc1)C(=O)Nc1ccc(Cl)cc1OCC | 817 |
| Cn1nccc1C(=O)NCCNCc1ccc(-c2ccc(-c3nc4cc(C(F)(F)F)ccc4[nH]3)s2)cc1 | 186 |
| COc1ccc2nccc([C@@H](O)CN3CCC(NCCOc4ccccc4[N+](=O)[O-])CC3)c2c1 | 384 |

| Structure (SMILES) | XC50 [nM] |
| --- | --- |
| CCCc1cc(C(=O)N[C@@H](Cc2ccccc2)[C@H](O)CNC2CCOCC2)c(F)c(N2CCCCS2(=O)=O)c1 | 166 |
| Cc1cccc2nc(-c3ccc(-c4cccc(NC(=O)c5ccncc5)c4)cc3)[nH]c12 | 839 |
| CCC[C@@H]([C@@H](CC1CCCCC1)C(=O)N[C@H](C(=O)Nc1nccs1)[C@H](C)O)N(O)C=O | 148 |
| OCCCCCCNc1nc(NCc2ccccc2-c2ccc(C(F)(F)F)cc2)nc(N2CCNCC2)n1 | 1440 |
| CC1(C)NC(N)=NC(=N)N1OCCSc1ccccc1 | 3.2 |
| COc1cc(NC(=O)CCCCCCCCN2CCN(C)CC2)c2ncccc2c1 | 891 |
| CN1CCN(CC(=O)Nc2ccc(-c3cccc(-c4nc5cc(F)ccc5[nH]4)c3)cc2)CC1 | 832 |
| CN1CCN(CCCN(Cc2ccc(-c3ccc(CNCc4ccc5c(c4)OCO5)cc3)cc2)C(=O)Nc2ccccc2)CC1 | 707 |
| Cc1cc(N[C@@H](Cc2ccccc2)C(=O)Nc2ccccc2)nc(NCCc2cccs2)n1 | 796 |
| COc1ccc(CNCc2cccc(-c3ccc(-c4nc5cccc(C)c5[nH]4)s3)c2)cc1 | 263 |
| O=S(=O)(NCCN1CCCC1)c1ccc(-c2ccc(CNCc3ccccc3)cc2)s1 | 849 |
| COc1ccc(Cl)cc1-c1nc(C(=O)NCCN2CCCCC2)c(C(C)C)s1 | 753 |
| Cc1ccc(C(=O)Nc2ccc(F)cc2)cc1-c1nc(NC2CC(C)(C)NC(C)(C)C2)nc2c1ccc(=O)n2-c1c(F)cccc1F | 684 |
| FC(F)(F)c1ccc2[nH]c(-c3ccc(-c4cccc(CNCc5cnn(-c6ccccc6)n5)c4)cc3)nc2c1 | 652 |
| CC(C)(C)C(=O)Nc1c(-c2cc(=O)oc3cc4c(cc23)CCC4)oc2ccccc12 | 1260 |
| N#Cc1ccc2c(c1)CN(C1CCC(NC(=O)c3cc(-c4ccc(Cl)cc4)cs3)CC1)CCC2 (configuration not stated) | 956 |
| OC[C@H](Nc1nc(C(Oc2ccccc2)c2ccccc2)nc2[nH]ncc12)c1ccccc1 (some centres not stated) | 854 |
| CC(=O)Nc1nc(C(=O)Nc2ccc(-c3ccc(-c4nc5cc(F)ccc5[nH]4)cc3)cc2)cs1 | 460 |
| CCCC(C)NC(=O)c1cnn(-c2ccc(C(C)(C)C)cc2)c1OCc1ccc(Br)cc1 (configuration not stated) | 1060 |
| Cc1ccc(S(=O)(=O)NC2CCN(CCNC(=O)Nc3cc(C)nc4ccccc34)C2)cc1 (configuration not stated) | 1040 |
| O=[N+]([O-])c1ccc(Oc2ccccc2CNCC2CCN(CC3CCCCC3)CC2)cc1 | 903 |
| CCCC(=O)c1cnc2c(OCCCc3c[nH]cn3)cccc2c1Nc1c(C)cccc1C | 338 |

From ChEMBL document CHEMBL1157539, “Thousands of chemical starting points for antimalarial lead identification” (Nature, 2010)
